The subject of one assay is A460. Kind of assay: in vitro IC50 against cancer cell lines, A460. In kind it is cell-based. The conditions noted are these: Homo sapiens, 72 h; A460, NSCLC, 3 days. As for the experimental part: Briefly, cells were plated in plastic tissue culture plates and grown under standard conditions for each cell line, in carbon dioxide/oxygen atmosphere in plastic tissue culture plates, in the presence of COTI-2 or COTI-219 compounds at 35° C. for 3 days. Control cultures were treated with vehicle minus compound. Cells were counted after 3 days in culture and at a cell density of no more than 80%. The following cell lines, obtained from the National Cancer Institute, were tested: human SCLC cell lines DMS153, DMS114, SHP77; human NSCLC cell lines H226, A460, A560; human breast cancer cell lines T47D, MCF7; human colon cancer cell line HT29; and, human Leukemia cell lines K562, HL60.

A further assay concerns H226. Kind of assay: Flow cytometric analysis of cell death (Annexin V/PI), H226. In kind it is cell-based, human. The conditions noted are these: H226, 15 μM, 48 h. As for the experimental part:
All cell lines were grown and exposed to various concentrations of COTI-2 or vehicle only control and the percentage of dead or dying cells were determined 24 and 48 h post-exposure by Annexin V and propidium iodide.
HL-60 (human promyelocytic leukemia) cells were grown as non-adherent cells in flasks in RPMI 1640 medium supplemented with 10% FBS. H226 (human non-small cell lung cancer) cells were grown in Eagle's MEM supplemented with 10% FBS. Both cell lines were obtained from the American Type Culture Collection (ATCC)(Rockville, Md.) and maintained at 37° C. in a humidified 5% CO2 atmosphere.
Cells were plated in 25-cm^2 flasks and treated with COTI-2 (0-100 μM) added from a stock DMSO/DMEM solution such that DMSO concentrations never exceeded 0.5%. Control cells were treated with stock DMSO/DMEM. […] Resuspended cells (100 μl) were incubated in the dark with 10 μl propidium iodide (PI, 50 ng per ml; Sigma, St. Louis, Mo.) plus Annexin V-FITC (25 ng per ml, green fluorescence; BD Biosciences, Mississauga, Ontario). […] Samples were analyzed for combined Annexin V/PI staining (to assess dead plus apoptotic cells) using a Beckman Coulter EPCS XL-MCL flow cytometer (Beckman Coulter, Hileah, Fla.) and the data were analyzed with CellQuest software.

By IC50 is commonly meant the concentration needed to halve the response being measured. Higher therefore signals weaker potency in that assay.

Turning to `S=C(N/N=C1/CCCc2cccnc21)N1CCN(c2ccccn2)CC1` [COTI-2], the IC50 in the assay on A460 came to 7.9 µM. Besides, the “induction of apoptosis and death” value in the assay on H226 is on record as “approximately 40%”.
